Results reported in US20180051316A1, “DETECTION OF NUCLEIC ACID POLYMERASE CONFORMATIONAL CHANGES USING A NANOTUBE” (priority 2014, published 2018).
pKi: −log10 of the molar value. Several values for one entry are separate records, joined by “and”; a condition that tells them apart may be missing. Equal entries are not always repeated. Entries after “also recorded” stand apart in the source; their conditions may differ. Where two headings read alike, the source gives them in different places. Marks after values point to notes of the source that are not given here.

What was measured:
[1] = molecular target: T1, DNA polymerase I (Klenow Fragment) (Escherichia coli, UniProt P00582, C907S/D355A/E357A/L790C); assay type: biochemical; conditions: for k: k=(<τopen>+<τclosed>)^−1; for <τclosed> / <τopen>: native dNTP 10 μM, analog 100 μM, average ± standard deviation; for direction of current spike ΔI per base incorporation: KF processing poly(dA)42; for frequency of ΔI(t) excursions relative to dGTP: complementary template-primer; for τopen events deviating from the single exponential fit / τopen events encompassed by single exponential fit: poly(dC)42; for τopen events encompassed by single exponential fit: more than 50 s of polymerization data; for direction of ΔI(t) excursions: poly(dC)42 template; for time constant of second exponential fit to tail of τopen distribution: poly(dC)42 template (FIG. 3B)
T1 construct: Single copies of the Klenow Fragment (KF) of DNA polymerase I were attached to single-walled carbon nanotube devices; made in house; host or cells: E. coli BL21(DE3)
T1 sequence (P00582 324-928 D355A/E357A/L790C/C907S): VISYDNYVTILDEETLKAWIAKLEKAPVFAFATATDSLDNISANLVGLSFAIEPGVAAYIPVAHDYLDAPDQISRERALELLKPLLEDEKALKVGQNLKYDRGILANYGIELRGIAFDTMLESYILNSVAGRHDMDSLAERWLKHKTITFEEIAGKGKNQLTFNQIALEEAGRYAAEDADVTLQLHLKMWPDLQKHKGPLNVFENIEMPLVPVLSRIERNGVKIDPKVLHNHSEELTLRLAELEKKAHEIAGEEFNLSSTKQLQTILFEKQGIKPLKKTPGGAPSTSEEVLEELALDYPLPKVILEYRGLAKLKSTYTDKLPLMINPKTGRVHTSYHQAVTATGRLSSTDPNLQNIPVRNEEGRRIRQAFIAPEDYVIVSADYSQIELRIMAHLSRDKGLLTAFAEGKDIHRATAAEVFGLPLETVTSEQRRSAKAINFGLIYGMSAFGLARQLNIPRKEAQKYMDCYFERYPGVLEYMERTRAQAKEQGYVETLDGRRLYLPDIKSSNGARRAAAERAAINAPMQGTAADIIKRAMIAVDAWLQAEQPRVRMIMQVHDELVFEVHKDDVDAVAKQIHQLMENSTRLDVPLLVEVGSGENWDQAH
Procedure: In embodiments, SWCNT-FETs are fabricated and functionalized with a single-cysteine variant of exonuclease-deficient KF (D355A/E357A/L790C/C907S). […] Attachment of KF to SWCNT-FETs is accomplished by soaking the devices in a solution of N-(1-pyrenyl)maleimide (1 mM in ethanol, 30 min), followed by incubation with KF (300 nM KF in a standard KF activity buffer of 20 mM Tris, 50 mM NaCl, 10 mM MgCl2, 100 μM TCEP, pH 8.0). […] Such devices are referred to simply as KF nanocircuits.
In embodiments, homopolymeric templates poly(dA)42, poly(dT)42, poly(dG)42, or poly(dC)42 mixed with complementary dNTP analogs are used for detecting conformational change of a polymerase, e.g., DNA polymerase. In embodiments, each template is fused to an M13 priming site and mixed with an M13 forward primer in a 1:1 stoichiometric ratio; for hybridization, the mixture is heated in a thermal cycler to 95° C. for 5 to 10 min followed by cooling to 65° C. then further cooling with a gradient of 5° C. every five min until reaching room temperature. In embodiments, KF nanocircuits are immersed in activity buffer with the annealed template-primer at 100 nM concentrations. Native or analog dNTPs are added to the buffer in excess, ensuring Vmax conditions for KF catalysis.
In embodiments, measurements consist of monitoring the source-drain current, I(t), through the SWCNT-FET while the attached KF molecule interacted with its surrounding environment. […] In embodiments, I(t) fluctuations are amplified, digitized at 100 kHz, and stored as uninterrupted, 600 s. Between measurements, the KF nanocircuits may be rinsed twice with activity buffer, incubated in buffer for 5 min, then rinsed twice with buffer before introducing another nucleotide and template-primer.
SWCNT FETs were fabricated and functionalized with a single cysteine variant of exonuclease-deficient KF. […] [20,21]
For each measurement, dNTPs were chosen to complement the homopolymeric templates poly(dA)42, poly(dT)42, poly(dG)42, and poly(dC)42. Each template was fused to an M13 priming site and mixed with an M13 forward primer in a 1:1 stoichiometric ratio; for hybridization, the mixture was heated to 95° C. for 5 to 10 minutes followed by cooling to room temperature. SWCNT FETs were immersed in a standard DNA Pol I activity buffer (20 mM Tris, 50 mM NaCl, 10 mM MgCl2, 100 μM TCEP, pH 8.0) with the template-primer hybrid at 100 nM concentration. Native or analog dNTPs were added to the buffer in excess, ensuring Vmax conditions for KF.
Measurements consisted of monitoring the source-drain current I(t) of a SWCNT FET while the attached KF molecule interacted with its surrounding environment.

[2] = molecular target: T2, KF (Escherichia coli, UniProt P00582, C907S/D355A/E357A/L790C); assay type: biochemical; conditions: 100 μM analog, 25° C., 2 h
T2 construct: Single copies of the Klenow Fragment (KF) of DNA polymerase I were attached to single-walled carbon nanotube devices; made in house; host or cells: E. coli BL21(DE3)
T2 sequence (P00582 324-928 D355A/E357A/L790C/C907S): as above
Procedure: Polymerization products with dNTP analogs and the A/T incorporation template (FIG. 8A) or the G/C incorporation template (FIG. 8B) were electrophoresed on a 5% high-resolution agarose gel. […] After visualization, the image colors were inverted, then changed to black and white.
Positive control reactions contained KF (1 μM), dNTPs or dNTP analogs (100 μM), and A/T or G/C incorporation template-primer (5 μM) in 10 mM Tris, 50 mM NaCl, 10 mM MgCl2, 1 mM DTT, pH 7.9. Reactions to test dNTP analog incorporation contained 100 μM analog in place of its native dNTP, and negative control reactions omitted either the analog or its native dNTP. Reactions were kept at 25° C. for 2 h in a thermal cycler before electrophoresis on a 5% high resolution agarose gel (FIG. 8B).

[3] = molecular target: KF active site (Escherichia coli, UniProt P00582); conditions: inhibition of KF catalysis; cited from earlier work
Sequence of KF active site (P00582 324-928): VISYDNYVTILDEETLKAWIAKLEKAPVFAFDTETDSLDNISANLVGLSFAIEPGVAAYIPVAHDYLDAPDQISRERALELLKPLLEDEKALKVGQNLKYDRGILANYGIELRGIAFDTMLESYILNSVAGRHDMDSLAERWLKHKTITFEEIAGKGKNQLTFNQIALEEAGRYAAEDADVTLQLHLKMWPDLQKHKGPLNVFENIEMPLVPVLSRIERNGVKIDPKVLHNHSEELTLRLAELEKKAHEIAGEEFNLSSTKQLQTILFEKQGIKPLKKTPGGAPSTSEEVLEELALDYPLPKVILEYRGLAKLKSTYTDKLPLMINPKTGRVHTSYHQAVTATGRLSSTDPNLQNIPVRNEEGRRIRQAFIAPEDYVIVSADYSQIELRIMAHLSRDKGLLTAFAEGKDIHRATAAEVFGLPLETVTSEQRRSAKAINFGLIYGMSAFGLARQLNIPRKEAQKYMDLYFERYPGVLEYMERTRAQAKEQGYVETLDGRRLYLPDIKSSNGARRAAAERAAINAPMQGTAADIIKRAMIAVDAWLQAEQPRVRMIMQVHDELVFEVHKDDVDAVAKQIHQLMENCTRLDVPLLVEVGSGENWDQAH

[4] = complementary homopolymeric template

Nc1ccn([C@H]2C[C@H](O)[C@@H](COP(=O)(O)OP(=O)(O)OP(=O)(O)O)O2)c(=S)n1 [2-thio-dCTP]
enzyme closure time τclosed compared to native dNTPs [1, 4]: no difference
rate of incorporation compared with native dNTPs [1, 4]: slightly faster; also recorded: approximately the same
k ([1]; template poly(dG)42): 30.6 ± 1.2^b 1/s
<τclosed> ([1]; template poly(dG)42): 0.41 ± 0.15^b ms
<τopen> ([1]; template poly(dG)42): 32.3 ± 1.1^b ms
incorporation into dsDNA, native counterpart omitted ([2]; G/C incorporation template): incorporated opposite the template base G

Cc1cn([C@H]2C[C@H](O)[C@@H](COP(=O)(O)OP(=O)(O)OP(=O)(O)O)O2)c(=O)[nH]c1=O [dTTP, deoxythymidine triphosphate]
direction of current spike ΔI per base incorporation [1]: negative current spike ΔI<0
k ([1]; template poly(dA)42): 14.3 ± 0.5 s⁻¹
<τclosed> ([1]; template poly(dA)42): 0.33 ± 0.12 ms
<τopen> ([1]; template poly(dA)42): 69.6 ± 2.3 ms

Nc1ccn([C@H]2C[C@H](O)[C@@H](COP(=O)(O)OP(=O)(O)OP(=O)(O)O)O2)c(=O)n1 [dCTP]
k ([1]; template poly(dG)42): 23.2 ± 3.2 s⁻¹
<τclosed> ([1]; template poly(dG)42): 0.35 ± 0.20 ms
<τopen> ([1]; template poly(dG)42): 42.8 ± 5.0 ms

Nc1nc(Cl)c2ncn([C@H]3C[C@H](O)[C@@H](COP(=O)(O)OP(=O)(O)OP(=O)(O)O)O3)c2n1 [6-Cl-2APTP, 2-amino-6-Cl-purine-2′-deoxyriboside-triphosphate]
average KF processing rate k for dNTP incorporation [1, 4]: 20 s⁻¹
enzyme closure time τclosed compared to native dNTPs [1, 4]: no difference
rate of incorporation compared with native dNTPs [1, 4]: compared most favorably to the slowest rates observed for native dGTP incorporation; also recorded: more quickly than native dATP
τopen relative to native dNTP (times longer) [1, 4]: about twice as long
frequency of ΔI(t) excursions relative to dGTP [1]: two to three times less frequently
direction of ΔI(t) current fluctuations ([1]; complementary template-primers): positive current fluctuations
direction of current spikes ([1]; heterogeneous substrates, nucleotide mixtures (FIG. 5A, 5C)): positive current spikes
direction of ΔI(t) signals ([1]; opposite both poly(dC)42 and poly(dT)42 templates): inverted amplitude
rate of ΔI(t) excursions relative to dGTP ([1]; opposite poly(dC)42): 80%
τopen events deviating from the single exponential fit [1]: Approximately twenty-five percent
τopen events encompassed by single exponential fit [1]: ≈ 75%
direction of ΔI(t) excursions [1]: Positive ΔI(t) excursions
time constant of second exponential fit to tail of τopen distribution [1]: 200 ms
k ([1]; template poly(dC)42): 19.7 ± 0.6 s⁻¹
<τclosed> ([1]; template poly(dC)42): 0.20 ± 0.12 ms
<τopen> ([1]; template poly(dC)42): 50.5 ± 1.4 ms
<τopen> ([1]; template poly(dC)42, listed as 6-Cl-dGTP): 50 ± 1 ms
incorporation into dsDNA, native counterpart omitted ([2]; A/T incorporation template): incorporated opposite the template base T
incorporation into dsDNA, native counterpart omitted ([2]; G/C incorporation template): incorporated opposite the template base C

Nc1ncnc2c1ncn2[C@H]1C[C@H](O)[C@@H](COP(O)(=S)OP(=O)(O)OP(=O)(O)O)O1 (stereo partly drawn) [α-thio-dATP]
effect of lower analog concentration on DNA polymerization ([1]; 10 μM analog instead of 100 μM, poly(dT)42 template): did not affect DNA polymerization
average KF processing rate k for dNTP incorporation [1, 4]: 7 s⁻¹
k ([1]; template poly(dT)42): 6.8 ± 0.4 s⁻¹
<τclosed> ([1]; template poly(dT)42): 0.38 ± 0.21 ms
<τopen> ([1]; template poly(dT)42): 145 ms and 145.9 ± 8.4 ms
incorporation into dsDNA, native counterpart omitted ([2]; A/T incorporation template): incorporated opposite the template base T

Nc1nc2c(ncn2[C@H]2C[C@H](O)[C@@H](COP(=O)(O)OP(=O)(O)OP(=O)(O)O)O2)c(=O)[nH]1 [dGTP]
average KF processing rate k for dNTP incorporation [1, 4]: 41 s⁻¹
τopen events encompassed by single exponential fit [1]: > 90%
direction of ΔI(t) excursions [1]: negative ΔI(t) excursions
k ([1]; template poly(dC)42): 24.3 ± 4.3 s⁻¹
<τclosed> ([1]; template poly(dC)42): 0.40 ± 0.20 ms
<τopen> ([1]; template poly(dC)42): 40.8 ± 6.0 ms

Nc1ncnc2c1ncn2[C@H]1C[C@H](O)[C@@H](COP(=O)(O)OP(=O)(O)OP(=O)(O)O)O1 [dATP]
k ([1]; template poly(dT)42): 16.8 ± 0.4 s⁻¹
<τclosed> ([1]; template poly(dT)42): 0.34 ± 0.18 ms
<τopen> ([1]; template poly(dT)42): 58.9 ± 1.2 ms

Cc1cn([C@H]2C[C@H](O)[C@@H](COP(O)(=S)OP(=O)(O)OP(=O)(O)O)O2)c(=O)[nH]c1=O (stereo partly drawn) [α-thio-dTTP]
average KF processing rate k for dNTP incorporation [1, 4]: 7 s⁻¹
k ([1]; template poly(dA)42): 6.6 ± 0.3 s⁻¹
<τclosed> ([1]; template poly(dA)42): 0.29 ± 0.13 ms
<τopen> ([1]; template poly(dA)42): 152.1 ± 6.6 ms
incorporation into dsDNA, native counterpart omitted ([2]; A/T incorporation template): incorporated opposite the template base A

Nc1ccn([C@H]2C[C@H](O)[C@@H](COP(O)(=S)OP(=O)(O)OP(=O)(O)O)O2)c(=O)n1 (stereo partly drawn) [α-thio-dCTP]
average KF processing rate k for dNTP incorporation [1, 4]: 15 s⁻¹
k ([1]; template poly(dG)42): 14.5 ± 1.0 s⁻¹
<τclosed> ([1]; template poly(dG)42): 0.33 ± 0.19 ms
<τopen> ([1]; template poly(dG)42): 68.8 ± 4.6 ms
incorporation into dsDNA, native counterpart omitted ([2]; G/C incorporation template): incorporated opposite the template base G

Nc1nc2c(ncn2[C@H]2C[C@H](O)[C@@H](COP(O)(=S)OP(=O)(O)OP(=O)(O)O)O2)c(=O)[nH]1 (stereo partly drawn) [α-thio-dGTP]
average KF processing rate k for dNTP incorporation [1, 4]: 15 s⁻¹
increase of <τopen> relative to native dNTP [1, 4]: 56%
τopen relative to native dNTP (times longer) [1, 4]: approximately 2.5
frequency of ΔI(t) excursions relative to dGTP [1]: two to three times less frequently
τopen events deviating from the single exponential fit [1]: Approximately twenty-five percent
τopen events encompassed by single exponential fit [1]: ≈ 75%
time constant of second exponential fit to tail of τopen distribution [1]: 200 ms
k ([1]; template poly(dC)42): 15.7 ± 0.7 s⁻¹
<τclosed> ([1]; template poly(dC)42): 0.21 ± 0.15 ms
<τopen> ([1]; template poly(dC)42): 63 ± 3 ms and 63.6 ± 2.8 ms
incorporation into dsDNA, native counterpart omitted ([2]; G/C incorporation template): incorporated opposite the template base C

Cc1cn([C@H]2C[C@H](O)[C@@H](COP(=O)(O)OP(=O)(O)OP(=O)(O)O)O2)c(=S)[nH]c1=O [2-thio-dTTP, 2-thio-2′-deoxythimidine-5′-triphosphate]
direction of current spike ΔI per base incorporation [1]: positive current spikes ΔI>0
average KF processing rate k for dNTP incorporation [1, 4]: 16 s⁻¹
enzyme closure time τclosed compared to native dNTPs [1, 4]: no difference
rate of incorporation compared with native dNTPs [1, 4]: slightly faster; also recorded: approximately the same
k ([1]; template poly(dA)42): 16.3 ± 0.9^b 1/s
<τclosed> ([1]; template poly(dA)42): 0.23 ± 0.14^b ms
<τopen> ([1]; template poly(dA)42): 61.1 ± 3.2^b ms
incorporation into dsDNA, native counterpart omitted ([2]; A/T incorporation template): incorporated opposite the template base A

Cc1cn(C2CC(O)C(COP(O)(=S)OP(=O)(O)OP(=O)(O)O)O2)c(=O)[nH]c1=O (single isomer, unassigned) [Rp diastereomer of α-thio-dTTP]
pKi [3]: ~4.52
